The data set relates to zebrafish. Put plainly: Cardiotoxicity experiment using zebrafish (heart rate, lethality). The data set is classed as in vivo. The settings on record: 10 uM, n = 10.

Each structure is given as a SMILES string.

Take `COc1ccc(CCN2CCC(Nc3nc4ccccc4n3Cc3ccc(F)cc3)CC2)cc1` [Astemizole, reference compound]: the Lethality is listed as 0/10. The “Changes (%) in heart rate” value (mean) came out at 46.2%.

The values are drawn from patent publication US11464770B2, “Anticancer pharmaceutical composition” (NATIONAL CANCER CENTER, priority 2016, dated 2022).
